This is an account of results in ChEMBL document CHEMBL1121591, “Synthesis and antitumor activity of 2,4-diamino-6-(2,5-dimethoxybenzyl)-5-methylpyrido[2,3-d]pyrimidine” (1980).

What all share (format): functional
Assay [1] deals with L1210. In words: Cytotoxic activity against the L1210 cell cultures. Particulars: Mus musculus, read-out: ED50 (the source's name).
Assay [2] deals with CCRF S-180. In words: Cytotoxic activity against the S180 cell cultures. Particulars: Mus musculus, read-out: ED50 (the source's name).
Assay [3] relates to W256. Nature of the assay: Cytotoxic activity against the Walker 256 carcinosarcoma in rats. Particulars: Rattus norvegicus, read-out: ED50 (the source's name).

Consider `CN(Cc1cnc2nc(N)nc(N)c2n1)c1ccc(C(=O)N[C@@H](CCC(=O)O)C(=O)O)cc1` [METHOTREXATE], for which the EC50 was 16 nM in assay [1], 16 nM in assay [2] and 20 nM in assay [3].
As to `Cc1nc(N)nc(N)c1-c1ccc(Cl)c(Cl)c1` [METOPRINE], the EC50 was determined as 220 nM in assay [1], 50 nM in assay [2] and 50 nM in assay [3].
Consider `COc1ccc(OC)c(Cc2cnc3nc(N)nc(N)c3c2C)c1` [PIRITREXIM], for which the EC50 stood at 2 nM in assay [1], 12 nM in assay [2] and 8 nM in assay [3].
